Source: BindingDB's records for doi:10.1002/cbic.201500446 (Hans Knöll Institute, 2015)

Target: T1, Polyunsaturated fatty acid 5-lipoxygenase (Homo sapiens, UniProt P09917)
T1 sequence (P09917 whole entry): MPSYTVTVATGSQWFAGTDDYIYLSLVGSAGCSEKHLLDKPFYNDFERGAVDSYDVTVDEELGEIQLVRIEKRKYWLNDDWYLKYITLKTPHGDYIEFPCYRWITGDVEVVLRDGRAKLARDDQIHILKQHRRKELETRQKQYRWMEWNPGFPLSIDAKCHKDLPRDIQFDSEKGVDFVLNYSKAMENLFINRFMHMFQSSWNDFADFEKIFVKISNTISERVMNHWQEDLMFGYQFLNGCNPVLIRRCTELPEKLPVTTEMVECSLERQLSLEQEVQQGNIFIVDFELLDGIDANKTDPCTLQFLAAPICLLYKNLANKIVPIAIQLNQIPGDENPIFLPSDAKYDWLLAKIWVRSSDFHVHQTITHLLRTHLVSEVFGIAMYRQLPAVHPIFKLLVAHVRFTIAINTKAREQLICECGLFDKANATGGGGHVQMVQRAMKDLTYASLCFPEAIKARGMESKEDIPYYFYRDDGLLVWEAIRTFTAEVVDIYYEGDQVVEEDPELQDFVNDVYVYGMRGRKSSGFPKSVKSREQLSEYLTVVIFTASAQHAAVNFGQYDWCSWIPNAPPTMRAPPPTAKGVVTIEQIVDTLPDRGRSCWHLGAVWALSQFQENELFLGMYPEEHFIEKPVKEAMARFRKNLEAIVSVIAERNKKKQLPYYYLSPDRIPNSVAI
Test: 5-LO Activity Assay
Description: Purified 5-LO was diluted in PBS containing EDTA (1 mM) and freshly added ATP (1 mM) and incubated with the myxochelin test substances for 10 min at 4°C, followed by 30 s at 37°C. Addition of CaCl2 (2 mM) and arachidonic acid (20 µM) initiatedthe 5-LO product formation. After 10 min, the reaction was terminated by adding ice-old MeOH (1 mL), and the production of 5-LO metabolites was analyzed by RP-HPLC.

SMILES	IC50
O=C(NCCCC[C@@H](CO)NC(=O)c1cccc(O)c1O)c1ccccc1 [Myxochelin J1]	3.15 µM
O=C(N[C@H](CO)CCCCNC(=O)c1cccc(O)c1O)c1ccccc1 [Myxochelin J2]	2.39 µM
O=C(NCCCC[C@@H](CO)NC(=O)c1cccc(O)c1O)c1cccc(O)c1O [Myxochelin A]	1.72 µM
O=C(NCCCC[C@@H](CO)NC(=O)c1ccccc1F)c1ccccc1F [Myxochelin J11]	> 10 µM
O=C(NCCCC[C@@H](CO)NC(=O)c1ccccc1O)c1ccccc1O [Myxochelin J5]	9.32 µM
O=C(NCCCC[C@@H](CO)NC(=O)c1c(O)cccc1F)c1c(O)cccc1F [Myxochelin J8]	3.6 µM
O=C(NCCCC[C@@H](CO)NC(=O)c1c(O)cccc1F)c1cccc(O)c1O [Myxochelin J7]	1.18 µM
O=C(NCCCC[C@@H](CO)NC(=O)c1cccc(F)c1)c1cccc(F)c1 [Myxochelin J12]	> 10 µM
O=C(NCCCC[C@@H](CO)NC(=O)c1cccc(O)c1O)c1ccccc1F [Myxochelin J9]	8.4 µM
O=C(N[C@H](CO)CCCCNC(=O)c1c(O)cccc1F)c1cccc(O)c1O [Myxochelin J6]	1.44 µM

Now from value to compound:

IC50	SMILES
3.64 µM	O=C(N[C@H](CO)CCCCNC(=O)c1cccc(O)c1O)c1ccccc1Cl [Myxochelin J14]
4.6 µM	O=C(NCCCC[C@@H](CO)NC(=O)c1cccc(O)c1O)c1ccccc1Cl [Myxochelin J13]
3.54 µM	O=C(N[C@H](CO)CCCCNC(=O)c1cccc(O)c1O)c1ccccc1O [Myxochelin J4]
1.52 µM	O=C(NCCCC[C@@H](CO)NC(=O)c1cccc(O)c1O)c1ccccc1O [Myxochelin J3]
8.09 µM	O=C(N[C@H](CO)CCCCNC(=O)c1cccc(O)c1O)c1ccccc1F [Myxochelin J10]
